Experimental data published in PMC6158167 (Nature Communications, 2018).

What was measured:
[1] = test system: ShHTL3–ShMAX2 interaction; assay: Y2H assay ShHTL3-ShMAX2; format: cell-based, Striga hermonthica; settings: 5 μM ligand
Description: (§1) Full-length sequences of ShD14, ShHTL1, ShHTL3, ShHTL4, ShHTL7, and AtHTL were cloned into the pGBKT7 vector as bait (Clontech), and the coding regions of ShMAX2 and AtMAX2 were cloned into the pGADT7 vector as prey (Clontech). MAX2 was supposed to be unstable without ASK1. Therefore, AtASK1 was cloned into the N terminus of ShMAX2 and AtMAX2 with a 16-residue linker for co-expression. The bait and prey plasmids were co-transformed into the yeast (Saccharomyces cerevisiae) strain Y2HGold (Clontech) by the lithium acetate-mediated method. The presence of both plasmids was confirmed by growth on SD/-Leu/-Trp (-LT) plates. […] The plates were incubated for 5 days at 30 °C.

[2] = test system: ShHTL1-AtMAX2 interaction; settings: Y2H dilution series, 5 μM ligand
Description: as §1
(§2) and AtHTL were detected using an anti-GST antibody, as indicated by the black arrows. (b)
(§3) 1/10, 1/20, 1/50, 1/100, 1/1000) of transformed yeast cells was plated on control medium (SD/-
(§4) Leu/-Trp; -LT) and selective medium (SD/-Leu/-Trp/-His/-Ade; -LTHA) in the absence or
(§5) (1 picture or pasted object on this page, not shown here)

[3] = test system: ShHTL1–ShMAX2 interaction; settings: Y2H dilution series, 5 μM ligand
Description: as §1, §2, §3, §4, §5

ShHTL3 = target: ShHTL3; parameters: method as in PMID 27507097; settings: ITC; read-out: KD of KAR1 to ShHTL3; cited from earlier work
[4] = test system: ShHTL1–ShMAX2 interaction; assay: In vitro pull-down ShHTL1-ShMAX2; format: binding, Striga hermonthica; settings: 50 μM ligand
Protocol: Ni-NTA pull-down assays were performed with purified ShMAX2 or AtMAX2 as the bait and […]14, or GST-AtD14 as the prey. The molecular weight of the HTL/D14 proteins is nearly the same as that of ASK1; therefore, the HTL/D14 proteins were fused to GST, increasing their molecular weight for detection on SDS-PAGE gels. […] The protein complexes were then eluted with 100 μL of elution buffer containing 50 mM Bis-Tris, pH 6.8, 500 mM NaCl, and 500 mM imidazole and subjected to SDS-PAGE analysis. Samples of […] […] also subjected to western blotting after separation by SDS-PAGE. The proteins were transferred from the SDS-PAGE gel to a polyvinylidene fluoride (PVDF) membrane (Merck Millipore). […] Next, the membrane was incubated with anti-GST antibody as the primary antibody (71097-3; Novagen; diluted 1:10,000) at 25 °C for 1.5 h and then washed 3 times with TBST buffer. Anti-mouse antibody (32430; Thermo Scientific; diluted 1:4000) conjugated to horseradish peroxidase was used as the secondary antibody. After incubation with the secondary antibody at 25 °C for 1.5 h, the membrane was washed 3 times. For detection, SuperSignal West Femto Maximum Sensitivity Substrate (Thermo Scientific) was used as the chemiluminescence substrate and ImageQuant LAS 4000 mini (GE Healthcare) was used for imaging.

Cc1c2ccocc-2oc1=O [KAR1, 3-methyl-2H-furo [2,3-c] pyran-2-one]
ligand-induced ShHTL3-ShMAX2 interaction [1]: failed to interact with ShMAX2 in the presence of KAR1 | ligand effect on ShHTL1-AtMAX2 interaction [2]: significant difference between the control and the presence of KAR1 or rac-GR24 was not observed | ligand effect on ShHTL1-ShMAX2 interaction [3]: significant difference between the control and the presence of KAR1 or rac-GR24 was not observed | Kd (ShHTL3): 78 ± 3 µM | ShHTL1-ShMAX2 interaction in the presence of ligand [4]: no direct interaction with ShMAX2 in the presence of KAR1
